Results published in ChEMBL document CHEMBL1142056, “Structure-activity relationships of the oxindole growth hormone secretagogues” (Bioorg Med Chem Lett, 2005).

Tests used:
[1] = Clearance value intravenously administered to rats with 5 mg/kg; type: ADME, organism-based; parameters: dose 5 mg/kg, route intravenous; settings: rat, in vivo, iv
[2] = target: Growth hormone secretagogue receptor type 1 (Homo sapiens, UniProt Q92847); experiment: Inhibition of [125I]ghrelin binding to human recombinant ghrelin receptor membrane preparation
[3] = Cmax value in rat after oral dose of 20 mg/k; type: ADME, organism-based; parameters: route oral; settings: in vivo, 20 mg/kg
[4] = Volume of distribution value intravenously administered to rats with 5 mg/kg; type: ADME, organism-based; parameters: dose 5 mg/kg, route intravenous; settings: rat, in vivo, iv
[5] = Half life value intravenously administered to rats with 5 mg/kg; type: ADME, organism-based; parameters: dose 5 mg/kg, route intravenous; settings: rat, in vivo, iv
[6] = Bioavailability value in rat after oral dose of 20 mg/k; type: ADME, organism-based; settings: in vivo, 20 mg/kg, read-out: Bioavailabiility

Growth hormone secretagogue receptor type 1, sequence (Q92847 whole entry): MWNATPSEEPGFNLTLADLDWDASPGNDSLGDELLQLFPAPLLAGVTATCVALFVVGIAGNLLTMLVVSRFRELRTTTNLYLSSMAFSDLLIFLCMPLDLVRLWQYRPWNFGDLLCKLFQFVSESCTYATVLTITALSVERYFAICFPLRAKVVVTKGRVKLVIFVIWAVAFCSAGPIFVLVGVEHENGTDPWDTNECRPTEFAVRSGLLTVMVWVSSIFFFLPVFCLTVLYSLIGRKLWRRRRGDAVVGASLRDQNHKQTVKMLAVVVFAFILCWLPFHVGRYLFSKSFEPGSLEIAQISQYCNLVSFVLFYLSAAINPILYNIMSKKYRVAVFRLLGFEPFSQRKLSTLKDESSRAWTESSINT

Row | SMILES | IC50 [2] | other results
1 | CCN(CC)CCN1C(=O)[C@@](O)(c2ccc(Cl)cc2Cl)c2c1cc(C(N)=O)cc2C(F)(F)F | 0.02 nM | clearance [1]: 51 mL/min/kg; Cmax [3]: 491 ng/mL; Vd [4]: 5.4 L/kg; half-life [5]: 1.6 h; bioavailability [6]: 28%
2 | CCN(CC)CCN1C(=O)[C@@](O)(c2cccc(Cl)c2)c2c1cc(C(N)=O)cc2C(F)(F)F | 15 nM | 
3 | CCN(CC)CCN1C(=O)[C@@](O)(c2cc(Cl)ccc2Cl)c2c1cc(C(N)=O)cc2C(F)(F)F | 0.24 nM | 
4 | CCN(CC)CCN1C(=O)[C@@](O)(c2ccc(OC)cc2)c2c1cc(C(N)=O)cc2C(F)(F)F | 106 nM | 
5 | CCN(CC)CCN1C(=O)C(O)(c2ccccc2)c2c1cc(C(N)=O)cc2C(F)(F)F (configuration not stated) | 116 nM | 
6 | CCN(CC)CCN1C(=O)[C@@](O)(c2cccc(OC)c2)c2c1cc(C(N)=O)cc2C(F)(F)F | 77 nM | 
7 | CCN(CC)CCN1C(=O)[C@@](O)(c2c(Cl)cccc2Cl)c2c1cc(C(N)=O)cc2C(F)(F)F | 4.2 nM | 
8 | CCN(CC)CCN1C(=O)[C@@](O)(c2ccccc2OC)c2c1cc(C(N)=O)cc2C(F)(F)F | 160 nM | 
9 | CCN(CC)CCN1C(=O)[C@@](O)(c2ccc(Cl)cc2)c2c1cc(C(N)=O)cc2C(F)(F)F | 83 nM | 
10 | CCN(CC)CCN1C(=O)[C@@](O)(c2ccccc2Cl)c2c1cc(C(N)=O)cc2C(F)(F)F | 2.1 nM | 
11 | CCN(CC)CCN1C(=O)[C@@](O)(c2cccc(Cl)c2Cl)c2c1cc(C(N)=O)cc2C(F)(F)F | 1.6 nM | 
12 | CCN(CC)CCN1C(=O)C(O)(c2ccccc2Cl)c2c1cc(C(N)=O)cc2C(F)(F)F (configuration not stated) | 4 nM | 
